Source: PubChem BioAssay (NCI)
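96-well plates; 48 h exposure; 5 concentrations. Endpoints by linear interpolation between flanking doses. Not reached: highest tested concentration assigned. GI50 is the concentration that inhibits growth by half. TGI marks complete inhibition of growth.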

How the values were obtained:
Assay in all cases: NCI anticancer screen, dose series, 48 h
SN12C renal = tested on: SN12C renal
CCRF-CEM leukemia = tested on: CCRF-CEM leukemia
HOP-62 NSCLC = tested on: HOP-62 NSCLC
HOP-92 NSCLC = tested on: HOP-92 NSCLC
RXF 393 renal = tested on: RXF 393 renal
EKVX NSCLC = tested on: EKVX NSCLC
UO-31 renal = tested on: UO-31 renal
KM12 colon = tested on: KM12 colon
HCT-116 colon = tested on: HCT-116 colon
NCI-H226 lung = tested on: NCI-H226 lung
SK-MEL-28 melanoma = tested on: SK-MEL-28 melanoma
ACHN renal = tested on: ACHN renal
SNB-19 CNS = tested on: SNB-19 CNS
MDA-N = tested on: MDA-N
MCF7 breast = tested on: MCF7 breast
A498 renal = tested on: A498 renal
COLO 205 colon = tested on: COLO 205 colon
SF-268 CNS = tested on: SF-268 CNS
PC-3 prostate = tested on: PC-3 prostate
NCI/ADR-RES ovarian = tested on: NCI/ADR-RES ovarian
UACC-62 melanoma = tested on: UACC-62 melanoma
MALME-3M melanoma = tested on: MALME-3M melanoma
A549 NSCLC = tested on: A549 NSCLC
MDA-MB-435 = tested on: MDA-MB-435
SK-MEL-2 melanoma = tested on: SK-MEL-2 melanoma
OVCAR-4 ovarian = tested on: OVCAR-4 ovarian
MDA-MB-231 breast = tested on: MDA-MB-231 breast
SF-295 CNS = tested on: SF-295 CNS
SK-OV-3 ovarian = tested on: SK-OV-3 ovarian
IGROV1 ovarian = tested on: IGROV1 ovarian
LOX IMVI melanoma = tested on: LOX IMVI melanoma
HCT-15 colon = tested on: HCT-15 colon
SNB-75 CNS = tested on: SNB-75 CNS
MOLT-4 leukemia = tested on: MOLT-4 leukemia
UACC-257 melanoma = tested on: UACC-257 melanoma
OVCAR-5 ovarian = tested on: OVCAR-5 ovarian
K-562 leukemia = tested on: K-562 leukemia
OVCAR-8 ovarian = tested on: OVCAR-8 ovarian
NCI-H23 lung = tested on: NCI-H23 lung
HL-60(TB) leukemia = tested on: HL-60(TB) leukemia
M14 melanoma = tested on: M14 melanoma
HT29 colon = tested on: HT29 colon
TK-10 renal = tested on: TK-10 renal
T-47D breast = tested on: T-47D breast
DU-145 prostate = tested on: DU-145 prostate
U251 CNS = tested on: U251 CNS
NCI-H460 lung = tested on: NCI-H460 lung
SW-620 colon = tested on: SW-620 colon
CAKI-1 renal = tested on: CAKI-1 renal
OVCAR-3 ovarian = tested on: OVCAR-3 ovarian
HCC-2998 colon = tested on: HCC-2998 colon
786-0 renal = tested on: 786-0 renal
NCI-H522 lung = tested on: NCI-H522 lung
RPMI-8226 leukemia = tested on: RPMI-8226 leukemia
HS 578T breast = tested on: HS 578T breast
SR leukemia = tested on: SR leukemia
BT-549 breast = tested on: BT-549 breast
SF-539 CNS = tested on: SF-539 CNS
SK-MEL-5 melanoma = tested on: SK-MEL-5 melanoma

## O=C(O)CSc1nnc(COc2ccc(Cl)cc2)n1-c1ccccc1
SN12C renal
  TGI: > 100 µM
CCRF-CEM leukemia
  TGI: > 100 µM
HOP-62 NSCLC
  TGI: > 100 µM
HOP-92 NSCLC
  TGI: > 100 µM
RXF 393 renal
  TGI: > 100 µM
EKVX NSCLC
  TGI: > 100 µM
UO-31 renal
  TGI: > 100 µM
KM12 colon
  TGI: > 100 µM
HCT-116 colon
  TGI: > 100 µM
NCI-H226 lung
  TGI: > 100 µM
SK-MEL-28 melanoma
  TGI: > 100 µM
ACHN renal
  TGI: > 100 µM
SNB-19 CNS
  TGI: > 100 µM
MDA-N
  TGI: > 100 µM
MCF7 breast
  TGI: > 100 µM
A498 renal
  TGI: > 100 µM
COLO 205 colon
  TGI: > 100 µM
SF-268 CNS
  TGI: > 100 µM
PC-3 prostate
  TGI: > 100 µM
NCI/ADR-RES ovarian
  TGI: > 100 µM
UACC-62 melanoma
  TGI: > 100 µM
MALME-3M melanoma
  TGI: > 100 µM
A549 NSCLC
  TGI: > 100 µM
MDA-MB-435
  TGI: > 100 µM
SK-MEL-2 melanoma
  TGI: > 100 µM
OVCAR-4 ovarian
  TGI: > 100 µM
MDA-MB-231 breast
  TGI: > 100 µM
SF-295 CNS
  TGI: > 100 µM
SK-OV-3 ovarian
  TGI: > 100 µM
IGROV1 ovarian
  TGI: > 100 µM
LOX IMVI melanoma
  TGI: > 100 µM
HCT-15 colon
  TGI: > 100 µM
SNB-75 CNS
  TGI: > 100 µM
MOLT-4 leukemia
  TGI: > 100 µM
UACC-257 melanoma
  TGI: > 100 µM
OVCAR-5 ovarian
  TGI: > 100 µM
K-562 leukemia
  TGI: > 100 µM
OVCAR-8 ovarian
  TGI: > 100 µM
NCI-H23 lung
  TGI: > 100 µM
HL-60(TB) leukemia
  TGI: > 100 µM
M14 melanoma
  TGI: > 100 µM
HT29 colon
  TGI: > 100 µM
TK-10 renal
  TGI: > 100 µM
T-47D breast
  TGI: > 100 µM
DU-145 prostate
  TGI: > 100 µM
U251 CNS
  TGI: > 100 µM
NCI-H460 lung
  TGI: > 100 µM
SW-620 colon
  TGI: > 100 µM
CAKI-1 renal
  TGI: > 100 µM
OVCAR-3 ovarian
  TGI: > 100 µM
HCC-2998 colon
  TGI: > 100 µM
786-0 renal
  TGI: > 100 µM
NCI-H522 lung
  TGI: > 100 µM

## CCOc1cccc(/C=N/NC(=O)c2ccccc2Nc2ccnc(C(F)(F)F)c2)c1O
SN12C renal
  GI50: 0.989 µM
  TGI: > 94.9 µM
CCRF-CEM leukemia
  GI50: 0.136 µM
  TGI: > 31.4 µM
HOP-62 NSCLC
  GI50: 0.901 µM
  TGI: > 53.8 µM
HOP-92 NSCLC
  GI50: 0.246 µM
  TGI: 19.7 µM
RXF 393 renal
  GI50: 11.5 µM
  TGI: > 100 µM
EKVX NSCLC
  GI50: 0.404 µM
  TGI: > 100 µM
UO-31 renal
  GI50: 0.303 µM
KM12 colon
  GI50: 0.513 µM
  TGI: 47.7 µM
RPMI-8226 leukemia
  GI50: 0.332 µM
HCT-116 colon
  GI50: 0.336 µM
  TGI: > 51.9 µM
NCI-H226 lung
  GI50: 0.664 µM
  TGI: 19.1 µM
SK-MEL-28 melanoma
  GI50: 1.37 µM
  TGI: 98.3 µM
ACHN renal
  GI50: 0.271 µM
  TGI: > 67.8 µM
HS 578T breast
  GI50: 6.92 µM
  TGI: > 100 µM
SNB-19 CNS
  GI50: 2.04 µM
  TGI: > 100 µM
MCF7 breast
  GI50: 0.34 µM
  TGI: 25.4 µM
A498 renal
  GI50: 20.1 µM
  TGI: > 74.8 µM
COLO 205 colon
  GI50: 0.347 µM
  TGI: 36.9 µM
SR leukemia
  GI50: 0.0576 µM
  TGI: 0.363 µM
SF-268 CNS
  GI50: 0.599 µM
  TGI: > 100 µM
PC-3 prostate
  GI50: 0.428 µM
  TGI: > 39.1 µM
NCI/ADR-RES ovarian
  GI50: 0.506 µM
  TGI: 26.3 µM
UACC-62 melanoma
  GI50: 0.407 µM
  TGI: 14.7 µM
MALME-3M melanoma
  GI50: 0.835 µM
  TGI: 43.6 µM
A549 NSCLC
  GI50: 1.64 µM
  TGI: > 100 µM
MDA-MB-435
  GI50: 1.07 µM
  TGI: 77.4 µM
SK-MEL-2 melanoma
  GI50: 3.4 µM
  TGI: > 50.4 µM
BT-549 breast
  GI50: 0.494 µM
  TGI: 53.6 µM
OVCAR-4 ovarian
  GI50: 0.18 µM
MDA-MB-231 breast
  GI50: 0.7 µM
  TGI: > 100 µM
SF-295 CNS
  GI50: 0.516 µM
  TGI: 30.6 µM
SK-OV-3 ovarian
  GI50: 0.676 µM
  TGI: 40.5 µM
IGROV1 ovarian
  GI50: 0.0425 µM
  TGI: 0.243 µM
LOX IMVI melanoma
  GI50: 0.241 µM
  TGI: > 100 µM
HCT-15 colon
  GI50: 0.195 µM
  TGI: > 100 µM
SNB-75 CNS
  GI50: 2.09 µM
  TGI: > 77.9 µM
MOLT-4 leukemia
  GI50: 0.116 µM
  TGI: 0.459 µM
UACC-257 melanoma
  GI50: 0.693 µM
  TGI: 47.6 µM
OVCAR-5 ovarian
  GI50: 5.39 µM
  TGI: > 100 µM
K-562 leukemia
  GI50: 0.322 µM
  TGI: 10.4 µM
OVCAR-8 ovarian
  GI50: 0.449 µM
  TGI: > 100 µM
NCI-H23 lung
  GI50: 1.08 µM
  TGI: > 64.5 µM
HL-60(TB) leukemia
  GI50: 0.253 µM
  TGI: 0.621 µM
M14 melanoma
  GI50: 0.661 µM
  TGI: 2.91 µM
SF-539 CNS
  GI50: 0.501 µM
  TGI: 6.33 µM
HT29 colon
  GI50: 3.79 µM
  TGI: > 100 µM
TK-10 renal
  GI50: 0.567 µM
  TGI: > 100 µM
T-47D breast
  GI50: 0.582 µM
  TGI: 37.5 µM
DU-145 prostate
  GI50: 0.63 µM
  TGI: > 100 µM
U251 CNS
  GI50: 0.375 µM
  TGI: > 100 µM
NCI-H460 lung
  GI50: 0.272 µM
  TGI: 7.05 µM
SW-620 colon
  GI50: 1.23 µM
  TGI: > 100 µM
CAKI-1 renal
  GI50: 0.222 µM
  TGI: 10.5 µM
OVCAR-3 ovarian
  GI50: 0.37 µM
  TGI: 51.7 µM
HCC-2998 colon
  GI50: 0.398 µM
  TGI: > 44.2 µM
786-0 renal
  GI50: 1.32 µM
  TGI: 24 µM
NCI-H522 lung
  GI50: 3.47 µM
  TGI: > 63 µM
SK-MEL-5 melanoma
  GI50: 0.5 µM
  TGI: 4.91 µM
